Results: patent US10000473B2, “Indazole derivatives useful as glucagon receptor antagonists” (Janssen Pharmaceutica NV, priority 2016, dated 2018)

What follows are molecules tested against T1, human GCGR (Homo sapiens, UniProt P47871) (assay: Cellular functional assay, cAMP readout (glucagon-stimulated cAMP, LANCE TR-FRET)). Conditions: HEK293 cells stably expressing full-length human GCGR; glucagon 100 pM; IC50 converted to Ki; read-out: Inhibition of cAMP Ki.
T1 construct: expressed in transfected cells; host or cells: HEK293 (hGluc-1HEK), pcDNA3.1, G418 selection
Format: cell-based
Method: IC50 Values in Cellular Functional Assays: cAMP Readout
Full-length human GCGR (Accession Number: NM000160) subcloned into pcDNA3.1 was stably transfected into HEK293 cells (hGluc-1HEK) and maintained under G418 selection (500 μg/mL). Cell cultures were maintained in DMEM/F12 media supplemented with 10% FBS and 1% GlutaMax™ Supplement (Available from ThermoFisher Scientific, catalog #35050061). Glucagon stimulated cAMP was quantified using LANCE technology as per manufacturer instructions. On the day of the experiment, spent media was removed and cells were washed with Hank's Buffered Saline solution (HBSS), and cells harvested with non-enzymatic cell dissociation solution, then washed once with HBSS. Cells were re-suspended in stimulation buffer at a concentration of 0.83×10^6 cells/ml and cAMP detection antibody was added. 6 μl/well of this solution was then dispensed in a 384 well plate (cell density 5000 cells/well). Test compound was serially diluted in DMSO and 50 nl were dispensed on top of the cell solution and allowed to incubate for 30 minutes. 6 μl of a 2× glucagon solution (final concentration in assay 100 pM) was then added and the reaction was terminated after 5 minutes with the addition of detection mix. The resulting mixture was incubated, protected from light for 1.5 h. cAMP levels were quantified by TR-FRET in an EnVision instrument against a known standard. IC50's were generated by using a non-linear regression macro driven in Excel and converted to Ki values.

T1 sequence (P47871 26-477): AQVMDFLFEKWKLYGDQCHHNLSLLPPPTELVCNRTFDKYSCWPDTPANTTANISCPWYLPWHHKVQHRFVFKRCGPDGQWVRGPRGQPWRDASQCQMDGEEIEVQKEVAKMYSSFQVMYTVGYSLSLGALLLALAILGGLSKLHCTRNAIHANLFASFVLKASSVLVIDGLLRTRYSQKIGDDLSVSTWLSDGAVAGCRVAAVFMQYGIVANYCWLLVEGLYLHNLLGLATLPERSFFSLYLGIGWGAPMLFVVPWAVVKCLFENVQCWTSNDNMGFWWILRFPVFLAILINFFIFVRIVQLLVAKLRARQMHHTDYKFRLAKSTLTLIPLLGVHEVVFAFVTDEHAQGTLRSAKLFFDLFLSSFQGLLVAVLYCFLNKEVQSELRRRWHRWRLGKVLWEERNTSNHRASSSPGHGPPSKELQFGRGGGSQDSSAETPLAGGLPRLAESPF

Row | Ki [nM] | Structure (SMILES)
1 | 650 | CC(C)CC(c1ccc(C(=O)NCCC(=O)O)nc1)n1ncc2cc(-c3ccc(OC(F)(F)F)cc3)ccc21 (stereo not shown) [Compound #114, 3-(5-(3-Methyl-1-(5-(4-(trifluoromethoxy)phenyl)-1H-indazol-1-yl)butyl)picolinamido)propanoic acid]
2 | 140 | O=C(O)CCNC(=O)c1ccc(C(CCC(F)(F)F)n2ncc3cc(-c4cc5ccccc5s4)ccc32)cc1 (stereo not shown) [Compound #115, 3-[[4-[1-[5-(Benzothiophen-2-yl)indazol-1-yl]-4,4,4-trifluorobutyl]benzoyl]amino]propanoic acid]
3 | 125 | O=C(O)CCNC(=O)c1ccc(C(CCC(F)(F)F)n2cc3cc(-c4cc5ccccc5s4)ccc3n2)cc1 (stereo not shown) [Compound #122, 3-[[4-[1-[5-(Benzothiophen-2-yl)indazol-2-yl]-4,4,4-trifluorobutyl]benzoyl]amino]propanoic acid]
4 | 310 | Cc1c(-c2ccc(Cl)cc2Cl)ccc2c1cnn2C(CC(C)C)c1ccc(C(=O)NCCC(=O)O)cc1 (stereo not shown) [Compound #127, 3-(4-(1-(5-(2,4-Dichlorophenyl)-4-methyl-1H-indazol-1-yl)-3-methylbutyl)benzamido)propanoic acid]
5 | 195 | Cc1cc2nn(C(CC(C)C)c3ccc(C(=O)NCCC(=O)O)cc3)cc2cc1-c1ccc(C(F)(F)F)cc1 (stereo not shown) [Compound #134, 3-[[4-[3-Methyl-1-[6-methyl-5-[4-(trifluoromethyl)phenyl]indazol-2-yl]butyl]benzoyl]amino]propanoic acid]
6 | 100 | Cc1cc(C(F)(F)F)ccc1-c1ccc2c(cnn2C(CC(C)C)c2ccc(C(=O)NCCC(=O)O)cc2)c1Cl (stereo not shown) [Compound #135, 3-(4-(1-(4-Chloro-5-(2-methyl-4-(trifluoromethyl)phenyl)-1H-indazol-1-yl)-3-methylbutyl)benzamido)propanoic acid]
7 | 22 | COc1c(-c2ccc(C(F)(F)F)cc2Cl)ccc2nn(C(CC(C)C)c3ccc(C(=O)NCCC(=O)O)cc3)cc12 (stereo not shown) [Compound #137, 3-(4-(1-(5-(2-Chloro-4-(trifluoromethyl)phenyl)-4-methoxy-2H-indazol-2-yl)-3-methylbutyl)benzamido)propanoic acid]
8 | 125 | Cc1cc(Cl)ccc1-c1cc2cn(C(CC(C)C)c3ccc(C(=O)NCCC(=O)O)nc3)nc2cc1Cl (stereo not shown) [Compound #140, 3-[[5-[1-[6-Chloro-5-(4-chloro-2-methyl-phenyl)indazol-2-yl]-3-methyl-butyl]pyridine-2-carbonyl]amino]propanoic acid]
9 | 115 | CC(C)CC(c1ccc(C(=O)NCCC(=O)O)cc1)n1ncc2c(Cl)c(-c3ccc(C(F)(F)F)cc3Cl)ccc21 (stereo not shown) [Compound #141, 3-(4-(1-(4-Chloro-5-(2-chloro-4-(trifluoromethyl)phenyl)-1H-indazol-1-yl)-3-methylbutyl)benzamido)propanoic acid]
10 | 24 | Cc1ccc(-c2ccc3nn(C(CC(C)C)c4ccc(C(=O)NCCC(=O)O)cc4)cc3c2C)c(C)c1 (stereo not shown) [Compound #143, 3-(4-(1-(5-(2,4-Dimethylphenyl)-4-methyl-2H-indazol-2-yl)-3-methylbutyl)benzamido)propanoic acid]
11 | 160 | Cc1cc(C(F)(F)F)ccc1-c1cc2cnn(C(CC(C)C)c3ccc(C(=O)NCCC(=O)O)nc3)c2cc1Cl (stereo not shown) [Compound #146, 3-[[5-[1-[6-Chloro-5-[2-methyl-4-(trifluoromethyl)phenyl]indazol-1-yl]-3-methyl-butyl]pridine-2-carbonyl]amino]propanoic acid]
12 | 40 | CC(C)CC(c1ccc(C(=O)NCCC(=O)O)cc1)n1cc2c(Cl)c(-c3ccc(C(F)(F)F)cc3)ccc2n1 (stereo not shown) [Compound #147, 3-(4-(1-(4-Chloro-5-(4-(trifluoromethyl)phenyl)-2H-indazol-2-yl)-3-methylbutyl)benzamido)prop-anoic acid]
13 | 57 | Cc1ccc(-c2ccc3nn(C(CC(C)C)c4ccc(C(=O)NCCC(=O)O)cc4)cc3c2C)c(Cl)c1 (stereo not shown) [Compound #148, 3-(4-(1-(5-(2-Chloro-4-methylphenyl)-4-methyl-2H-indazol-2-yl)-3-methylbutyl)benzamido)propanoic acid]
